The NIST ThermoML archive (doi:10.1016/j.jct.2013.07.008)
Numbers after ± are expanded uncertainties.

Experiments:
[1] = refractive index (Na D-line) (dimensionless); settings: 101.33 kPa, Liquid, Standard Abbe refractometry
[2] = for mass density: 101.33 kPa, Buoyancy - hydrostatic balance; for mass density / surface tension liquid-gas: Liquid; for surface tension liquid-gas: Maximal bubble pressure; for Glass transition temperature: DTA

CC(O)C(=O)[O-].CCn1cc[n+](C)c1 [1-ethyl-3-methylimidazolium lactate]
Settings	mass density, [2] [kg/m3]	refractive index, [1]	surface tension liquid-gas, [2] [mN/m]
288.15 K	1192.9 ± 1.2	1.5026 ± 0.0005	49.5 ± 0.6
293.15 K	1189.8 ± 1.1	1.5014 ± 0.0005	49.2 ± 0.6
303.15 K	1183.4 ± 1.1	1.4987 ± 0.0005	48.4 ± 0.6
308.15 K	1180.1 ± 1.1	1.4977 ± 0.0005	48 ± 0.6
313.15 K	1176.4 ± 1.1	1.4961 ± 0.0005	47.7 ± 0.6
318.15 K	1173.4 ± 1.1	1.495 ± 0.0005	47.4 ± 0.6
323.15 K	1170.4 ± 1.1	1.4936 ± 0.0005	47 ± 0.6
328.15 K	1167.1 ± 1.1	1.4926 ± 0.0005	46.6 ± 0.6
333.15 K	1163.6 ± 1.1	1.4913 ± 0.0005	46.3 ± 0.6

Settings	Glass transition temperature [°C]
[2]	-81.30 ± 2

CC(O)C(=O)[O-].CCCCCn1cc[n+](C)c1 [1-pentyl-3-methylimidazolium lactate]
Settings	mass density, [2] [kg/m3]	refractive index, [1]	surface tension liquid-gas, [2] [mN/m]
288.15 K	1112.6 ± 1	1.494 ± 0.0005	43.1 ± 0.5
293.15 K	1109 ± 1	1.4928 ± 0.0005	42.7 ± 0.5
303.15 K	1102.7 ± 1	1.4901 ± 0.0005	42 ± 0.5
308.15 K	1099.4 ± 1	1.4891 ± 0.0005	41.5 ± 0.5
313.15 K	1095.3 ± 1	1.4875 ± 0.0005	41.2 ± 0.5
318.15 K	1092.9 ± 1	1.4864 ± 0.0005	40.9 ± 0.5
323.15 K	1089.9 ± 1	1.485 ± 0.0005	40.5 ± 0.5
328.15 K	1086.4 ± 1	1.4841 ± 0.0005	40.1 ± 0.5
333.15 K	1083.3 ± 1	1.4827 ± 0.0005	39.8 ± 0.5

Settings	Glass transition temperature [°C]
[2]	-78.20 ± 2
